The subject of the assay is fulvestrant-resistant MCF7:5C-FR cells. Nature of the assay: Fulvestrant-resistant breast cancer cell viability (cell proliferation) assay. The conditions noted are these: 120 h, growth inhibition in fulvestrant-resistant MCF-7:CFR cells, 120 hrs. The class given is cell-based. In short, it runs like this:
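Cells were treated the day after seeding with compounds at 3 nM to 10 uM for 120 h, with 0.1% DMSO vehicle and 1 uM JQ1 as positive control. Hoechst 33342-stained (5 μg/ml, 90 min, 37 C) nuclei were imaged and counted, and cell numbers normalized to vehicle.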
One may read the IC50 as the concentration at which inhibition is half-maximal. `CCS(=O)(=O)Nc1cc(-c2cn(C)c3c(O)nccc23)cc2c1cnn2Cc1cccc2c1ccn2C` [Compound 45, N-(6-(7-hydroxy-1-methyl-1H-pyrrolo[2,3-c]pyridin-3-yl)-1-((1-methyl-1H-indol-4-yl)methyl)-1H-indazol-4-yl)ethanesulfonamide] registered an IC50 of more than 100 nM.
For `Cn1cc(-c2cc(S(C)(=O)=O)c3ccn(C(C)(c4ccccn4)c4ccccn4)c3c2)c2cc[nH]c(=O)c21` [Compound 128, 3-(1-(1,1-di(pyridin-2-yl)ethyl)-4-(methylsulfonyl)-1H-indol-6-yl)-1-methyl-1,6-dihydro-7H-pyrrolo[2,3-c]pyridin-7-one], the IC50 is less than 1000 nM.
For `Cn1cc(-c2nc3c(NS(C)(=O)=O)cccc3n2[C@@H](c2ccccc2)C2CCOCC2)c2ccnc(O)c21` [Compound 68, (R)-N-(2-(7-hydroxy-1-methyl-1H-pyrrolo[2,3-c]pyridin-3-yl)-1-(phenyl(tetrahydro-2H-pyran-4-yl)methyl)-1H-benzo[d]imidaol-4-yl)methanesulfonamide] the value was less than 1000 nM; for `Cc1cccc(Cl)c1Cn1ccc2c(C(C)(C)O)cc(-c3cn(C)c4c(=O)[nH]ccc34)cc21` [Compound 114, 3-(1-(2-chloro-6-methylbenzyl)-4-(2-hydroxypropan-2-yl)-1H-indol-6-yl)-1-methyl-1,6-dihydro-7H-pyrrolo[2,3-c]pyridin-7-one], less than 1000 nM; for `Cn1cc(-c2cc3c(C(C)(C)O)cccc3n2[C@H](c2ccccc2)C2CCOCC2)c2ccnc(O)c21` [Compound 117, (S)-3-(4-(2-hydroxypropan-2-yl)-1-(phenyl(tetrahydro-2H-pyran-4-yl)methyl)-1H-indol-2-yl)-1-methyl-1H-pyrrolo[2,3-c]pyridin-7-ol], less than 1000 nM.
With `CC(C)C(=O)Nc1cccc2c1cc(-c1cn(C)c3c(O)nccc13)n2[C@@H](c1ccccc1)C1CCOCC1` [Compound 124, (R)-N-(2-(7-hydroxy-1-methyl-1H-pyrrolo[2,3-c]pyridin-3-yl)-1-(phenyl(tetrahydro-2H-pyran-4-yl)methyl)-1H-indol-4-yl)isobutyramide], the IC50 was less than 1000 nM.
As for `CCS(=O)(=O)Nc1cc(-c2cn(C)c3c(O)nccc23)cc2c1ccn2Cc1cccc2ccsc12` [Compound 53, N-(1-(benzo[b]thiophen-7-ylmethyl)-6-(7-hydroxy-1-methyl-1H-pyrrolo[2,3-c]pyridin-3-yl)-1H-indol-4-yl)ethanesulfonamide], the IC50 is less than 1000 nM.
The molecule `CCS(=O)(=O)Nc1cc(-c2cn(C)c3c(=O)[nH]ccc23)cc2c1ccn2C(C)(c1nccn1C)c1nccn1C` [Compound 75, N-(1-(1,1-bis(1-methyl-1H-imidazol-2-yl)ethyl)-6-(7-hydroxy-1-methyl-1H-pyrrolo[2,3-c]pyridin-3-yl)-1H-indol-4-yl)ethanesulfonamide] yielded an IC50 of less than 1000 nM.
Take `Cn1cc(-c2nc3c(NS(C)(=O)=O)cccc3n2Cc2ccc(F)cc2)c2ccnc(O)c21` [Compound 39, N-(1-(4-fluorobenzyl)-2-(7-hydroxy-1-methyl-1H-pyrrolo[2,3-c]pyridin-3-yl)-1H-benzo[d]imidazol-4-yl)methanesulfonamide]: the IC50 was less than 1000 nM.
As for `CCS(=O)(=O)Nc1cc(-c2cn(CCCl)c3c(O)nccc23)cc2c1ccn2Cc1ccc(F)cc1F` [Compound 85, N-(6-(1-(2-chloroethyl)-7-hydroxy-1H-pyrrolo[2,3-c]pyridin-3-yl)-1-(2,4-difluorobenzyl)-1H-indol-4-yl)ethanesulfonamide], the IC50 is less than 1000 nM.
For `C=CC(=O)Cn1cc(-c2cc(NS(C)(=O)=O)c3ccn(Cc4ccccc4)c3c2)c2ccnc(O)c21` [Compound 97, N-(1-benzyl-6-(7-hydroxy-1-(2-oxobut-3-en-1-yl)-1H-pyrrolo[2,3-c]pyridin-3-yl)-1H-indol-4-yl)methanesulfonamide] the value was more than 100 nM; for `CCS(=O)(=O)Nc1cccc2c1nc(-c1cn(C)c3c(O)nccc13)n2Cc1ccc(F)cc1F` [Compound 43, N-(1-(2,4-difluorobenzyl)-2-(7-hydroxy-1-methyl-1H-pyrrolo[2,3-c]pyridin-3-yl)-1H-benzo[d]imidazol-4-yl)ethanesulfonamide], less than 1000 nM.
`Cn1cc(-c2cc(C(C)(C)O)c3ccn(C(C)(c4nccs4)c4nccs4)c3c2)c2cc[nH]c(=O)c21` [Compound 111, 3-(1-(1,1-di(thiazol-2-yl)ethyl)-4-(2-hydroxypropan-2-yl)-1H-indol-6-yl)-1-methyl-1,6-dihydro-7H-pyrrolo[2,3-c]pyridin-7-one] showed a half-maximal inhibitory concentration (IC50) of less than 1000 nM.
To `C=CC(=O)Cn1cc(-c2cc(NS(C)(=O)=O)c3ccn(Cc4ccc(F)cc4)c3c2)c2ccnc(O)c21` [Compound 88, N-(1-(4-fluorobenzyl)-6-(7-hydroxy-1-(2-oxobut-3-en-1-yl)-1H-pyrrolo[2,3-c]pyridin-3-yl)-1H-indol-4-yl)methanesulfonamide] belongs less than 1000 nM; to `CCS(=O)(=O)Nc1cccc2c1nc(-c1cn(C)c3c(O)nccc13)n2Cc1ccc(F)cc1C` [Compound 41, N-(1-(4-fluoro-2-methylbenzyl)-2-(7-hydroxy-1-methyl-1H-pyrrolo[2,3-c]pyridin-3-yl)-1H-benzo[d]imidazol-4-yl)ethanesulfonamide], less than 1000 nM; to `Cn1cc(-c2cn(CC(N)=O)c3ccc(-c4ccc(F)cc4)cc23)c2ccnc(O)c21` [Compound 16, 2-(5-(4-fluorophenyl)-3-(7-hydroxy-1-methyl-1H-pyrrolo[2,3-c]pyridin-3-yl)-1H-indol-1-yl)acetamide], more than 1000 nM.
For `CCS(=O)(=O)Nc1cccc2c1nc(-c1cn(C)c3c(O)nccc13)n2Cc1ccc(F)cc1` [Compound 40, N-(1-(4-fluorobenzyl)-2-(7-hydroxy-1-methyl-1H-pyrrolo[2,3-c]pyridin-3-yl)-1H-benzo[d]imidazol-4-yl)ethanesulfonamide] the value was less than 1000 nM; for `Cn1cc(-c2cc(NS(C)(=O)=O)c3ccn(CC4(C)COC4)c3c2)c2cc[nH]c(=O)c21` [Compound 74, N-(6-(1-methyl-7-oxo-6,7-dihydro-1H-pyrrolo[2,3-c]pyridin-3-yl)-1-((3-methyloxetan-3-yl)methyl)-1H-indol-4-yl)methanesulfonamide], 134 nM.
To `CS(=O)(=O)Nc1cc(-c2cn(CC3CO3)c3c(O)nccc23)cc2c1ccn2Cc1ccccc1` (stereo not drawn) [Compound 98, N-(1-benzyl-6-(7-hydroxy-1-(oxiran-2-ylmethyl)-1H-pyrrolo[2,3-c]pyridin-3-yl)-1H-indol-4-yl)methanesulfonamide] belongs less than 1000 nM.
Consider `CCS(=O)(=O)Nc1cc(-c2cn(C)c3c(O)nccc23)cc2c1ncn2Cc1ccc(F)cc1` [Compound 37, N-(1-(4-fluorobenzyl)-6-(7-hydroxy-1-methyl-1H-pyrrolo[2,3-c]pyridin-3-yl)-1H-benzo[d]imidazol-4-yl)ethanesulfonamide], for which the IC50 was less than 1000 nM.
As to `Cn1cc(-c2cc3c(NS(C)(=O)=O)cccc3n2[C@H](c2ccccc2)C2CCOCC2)c2ccnc(O)c21` [Compound 122, (S)-N-(2-(7-hydroxy-1-methyl-1H-pyrrolo[2,3-c]pyridin-3-yl)-1-(phenyl(tetrahydro-2H-pyran-4-yl)methyl)-1H-indol-4-yl)methanesulfonamide], the IC50 is less than 1000 nM.

The values above are taken from US11840533B2, “Pyridinone-based epigenetic modifiers and uses thereof” (THE BOARD OF TRUSTEES OF THE UNIVERSITY OF ILLINOIS, priority 2017, dated 2023).
